The target in the test is human PAD4 (hPAD4) (Homo sapiens, UniProt Q9UM07). The test can be described thus: RFMS human PAD4 functional assay (rapid-fire mass spectrum). It counts as biochemical. Particulars: 5 nM hPAD4 enzyme, 250 μM BAEE, 50 μM Calcium; 30 min preincubation, 90 min reaction at 37° C. A digest of the protocol:
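PAD4 (10 nM) preincubated 30 min with compound (top final 50 μM), then BAEE substrate added in pH 7.5 HEPES buffer with DTT, 50 μM calcium, TPEN; 90 min at 37° C. After TCA quench, citrulline derivatized with phenyl glyoxal (4 mM final, 30 min, 37° C) and quantified by RapidFire MS against internal standard.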

Chain of human PAD4 (hPAD4) (Q9UM07 whole entry): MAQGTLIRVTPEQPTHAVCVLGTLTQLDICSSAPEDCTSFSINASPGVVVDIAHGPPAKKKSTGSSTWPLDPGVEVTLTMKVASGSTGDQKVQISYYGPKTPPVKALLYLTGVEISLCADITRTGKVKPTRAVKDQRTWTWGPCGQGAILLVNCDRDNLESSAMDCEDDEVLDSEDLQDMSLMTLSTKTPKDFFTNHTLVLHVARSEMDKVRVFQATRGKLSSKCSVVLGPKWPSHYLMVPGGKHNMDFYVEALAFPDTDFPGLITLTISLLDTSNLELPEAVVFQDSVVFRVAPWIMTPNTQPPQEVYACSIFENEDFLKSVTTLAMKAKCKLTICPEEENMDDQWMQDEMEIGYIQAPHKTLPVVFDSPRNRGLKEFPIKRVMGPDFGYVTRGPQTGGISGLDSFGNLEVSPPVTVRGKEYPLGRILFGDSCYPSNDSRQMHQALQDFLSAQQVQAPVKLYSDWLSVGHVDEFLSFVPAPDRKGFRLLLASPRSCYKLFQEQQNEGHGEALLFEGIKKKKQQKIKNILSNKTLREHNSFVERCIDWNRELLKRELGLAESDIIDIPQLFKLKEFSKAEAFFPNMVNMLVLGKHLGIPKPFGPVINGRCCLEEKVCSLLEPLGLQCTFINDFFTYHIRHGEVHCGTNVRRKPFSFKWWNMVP

Regarding `COc1cc(C(=O)N2C[C@H]3CC[C@@H]2[C@@H]3N)cc2nc(-c3cc4cccnc4n3CC3CC3)n(C[C@H]3CCN(c4ccnc(C#N)n4)C3)c12` [Example 204, 4-[(3S)-3-({5-[(1R,4R,7R)-7-amino-2-azabicyclo[2.2.1]heptane-2-carbonyl]-2-[1-(cyclopropylmethyl)-1H-pyrrolo[2,3-b]pyridin-2-yl]-7-methoxy-1H-1,3-benzodiazol-1-yl}methyl)pyrrolidin-1-yl]pyrimidine-2-carbonitrile], the IC50 (as a rule, the point on the concentration scale where inhibition reaches its midpoint) was found to be 35 nM.
Regarding `COc1cc(C(=O)N2CC3CCC2[C@@H]3N)cc2nc(-c3cc4cccnc4n3CC3CC3)n(CC3CN(C(=O)c4cccc(F)c4)C3)c12` (stereo partly drawn) [Example 464, (7R)-2-{2-[1-(cyclopropylmethyl)-1H-pyrrolo[2,3-b]pyridin-2-yl]-1-{[1-(3-fluorobenzoyl)azetidin-3-yl]methyl}-7-methoxy-1H-1,3-benzodiazole-5-carbonyl}-2-azabicyclo[2.2.1]heptan-7-amine], the IC50 worked out at 76 nM.
On to `COc1cc(C(=O)N2CC3CCC2[C@@H]3N)cc2nc(-c3cc4ccccc4n3CC3CC3)n(CC3CN(C(=O)[C@H]4C[C@@H]4C)C3)c12` (stereo partly drawn) [Example 172, (1R,4R,7R)-2-{2-[1-(cyclopropylmethyl)-1H-indol-2-yl]-7-methoxy-1-({1-[(1S,2S)-2-methylcyclopropanecarbonyl]aze-tidin-3-yl}methyl)-1H-1,3-benzodiazole-5-carbonyl}-2-azabicyclo[2.2.1]heptan-7-amine], for which the IC50 turned out to be 42 nM.
The same measure for `COc1cc(C(=O)N2C[C@H]3CC[C@@H]2[C@@H]3N)cc2nc(-c3cc4cccnc4n3CC3CC3)n(CC3CN(S(=O)(=O)C4CC4)C3)c12` [Example 332, (1R,4R,7R)-2-(1-{[1-(cyclopropanesulfonyl)azetidin-3-yl]methyl}-2-[1-(cyclopropylmethyl)-1H-pyrrolo[2,3-b]pyridin-2-yl]-7-methoxy-1H-1,3-benzodiazole-5-carbonyl)-2-azabicyclo[2.2.1]heptan-7-amine]: 219 nM.
Consider `COc1cc(C(=O)N2C[C@H]3CC[C@@H]2[C@@H]3N)cc2nc(-c3cc4cccnc4n3C)n(C[C@H]3CCN(c4cncc(C#N)c4)C3)c12` [Example 215, 5[(3S)-3-({5-[(1R,4R,7R)-7-amino-2-azabicyclo[2.2.1]heptane-2-carbonyl]-7-methoxy-2-{1-methyl-1H-pyrrolo[2,3-b]pyridin-2-yl}-1H-1,3-benzodiazol-1-yl}methyl)pyrrolidin-1-yl]pyridine-3-carbonitrile], for which the IC50 turned out to be 148 nM.
Then `COc1cc(C(=O)N2CC3CCC2[C@@H]3N)cc2nc(-c3cc4ccc(Br)cc4n3CC3CC3)n(Cc3cnn(C)c3)c12` (stereo partly drawn) [Example 522, (7R)-2-{2-[6-bromo-1-(cyclopropylmethyl)-1H-indol-2-yl]-7-methoxy-1-[(1-methyl-1H-pyrazol-4-yl)methyl]-1H-1,3-benzodiazole-5-carbonyl}-2-azabicyclo[2.2.1]heptan-7-amine], with 23 nM; and `COC(=O)N[C@H]1C[C@H](n2c(-c3cc4cccnc4n3CC3CC3)nc3cc(C(=O)N4CC5CCC4[C@@H]5N)cc(OC)c32)C1` (stereo partly drawn) [Example 296, methyl N-[(1r,3r)-3-{5-[(1R,4R,7R)-7-amino-2-azabicyclo[2.2.1]heptane-2-carbonyl]-2-[1-(cyclopropylmethyl)-1H-pyrrolo[2,3-b]pyridin-2-yl]-7-methoxy-1H-1,3-benzodiazol-1-yl}cyclobutyl]carbamate], with 582 nM; and `Cc1cc(C(=O)N2CC3CCC2[C@@H]3N)cc2nc(-c3cc4cccnc4n3CC3CC3)n(CC3CN(C(=O)c4ccccc4)C3)c12` (stereo partly drawn) [Example 458, (7R)-2-{1-[(1-benozylazetidin-3-yl)methyl]-2-[1-(cyclopropylmethyl)-1H-pyrrolo[2,3-b]pyridin-2-yl]-7-methyl-1H-1,3-benzodiazole-5-carbonyl}-2-azabicyclo[2.2.1]heptan-7-amine], with 65 nM.

These data come from patent publication US12692254B2, “Benzimidazole inhibitors of PAD enzymes” (BRISTOL-MYERS SQUIBB COMPANY, priority 2018, dated 2026).
